Reference: patent US10858305B2, “Perillyl alcohol-3-bromopyruvate conjugate and methods of treating cancer” (NeOnc Technologies, Inc., priority 2016, dated 2020)
Entries after “also recorded” stand apart in the source; their conditions may differ.

What was measured:
Assay type in all cases: cell-based, human
tumor cell lines = experiment: cells; details: Homo sapiens; MTT, 24 hours; POH alone; read-out: concentration required to reach IC50
Protocol: Different tumor cell lines were treated with 3-BP mixed with POH, and the effects were compared to the effects of NEO218, as well as to 3-BP alone. The cells were treated for 24 hours, and then the MTT assay was conducted to measure cell viability.

[1] = test system: MDA-MB-231 breast cancer cells; experiment: LDH release assay in MDA-MB-231 / breast cancer cell lines; details: breast cancer cell lines, 24 hours
Protocol: (§1) (A) MTT assay was performed after 24 hours. […] (B) LDH assay was performed after […]. LDH release by untreated cells was set to 1. Relative fold increase is shown (n=3).
(§2) (A) MTT assay was performed after 24 hours. Viability of untreated cells was set at 100% (data points are averages of 2 experiments). (B) LDH assay was performed after 24 hours. LDH release by untreated cells was set to 1. Relative fold increase is shown (averages from 2 experiments). (C) Representative photos show typical colony formation after initial 48 hours of drug treatment. In all cases of combination treatment with 3-BP mixed with […] (3-BP+POH), the indicated concentrations refer to each individual drugs, i.e., 100 μM 3-BP+POH means that 100 μM 3-BP was combined with 100 μM POH.
The capacity for rapid cell killing by NEO218 relative to 3-BP, POH and 3-BP+POH was evaluated via LDH assay, where LDH release is used as a proxy for cell death.
In FIG. 4, Panels (a) and (b), show the results of treating breast cancer cell lines with increasing concentrations of NEO218, 3-BP, or 3-BP mixed with POH. […] In all cases a-d, the release of LDH (as a marker of cell death) was measured after 24 hours.
Depending on the cell line, 2000 to 4000 cells per well were seeded in a volume of 50 μL into a 96-well plate. The next day, drugs ere added in an additional 50 μL of medium. At different time points (usually after 24 hours of incubation), 50 μL medium was removed and processed with the LDH Cytotoxicity Assay Kit (Thermo Fisher Scientific, Waltham, Mass.) according to the manufacturer's instructions. This kit measures extracellular LDH in culture medium using an enzymatic reaction that results in a red formazan product, which can be measured spectrophotometrically. The absorbance was measured at 490 and 680 nm. All LDH levels were normalized to untreated controls and presented as fold change of the controls.

[2] = test system: tumor cells (two cell lines, incl. MCF7/Dox); experiment: Colony formation assay (CFA), 24 hours drug exposure (FIG. 5); details: Homo sapiens, MCF7-DOX, colonies after ten to fifteen days, read-out: IC50 (cell survival and colony formation)
Protocol: The effect of NEO218 on tumor cell survival and colony formation relative to 3-BP, POH and 3-BP+POH was evaluated via the colony formation assay (CFA). Six hundred cells per culture well were seeded and exposed to increasing concentrations of NEO218, 3-BP, a mix of 3-BP+POH, or POH alone. After 24 hours, all drugs were removed from cells and fresh culture medium was added. Ten to fifteen days later, the surviving cells had formed colonies of descendants, which were stained and counted.

[3] = test system: all cell types (breast, brain, ovary, colon cancer cell lines); experiment: Summary of cytotoxicity over MTT, LDH and colony formation assays (FIGS. 2-5); details: all cells
Excerpt: The tumor cell-killing potency of NEO218 was characterized by in vitro, short-term MTT assays (measuring viability of cells via determination of metabolic activity), LDH assays (measuring the release of lactate dehydrogenase as an indicator of leaky cell membranes, which are indicative of dying cells), and colony-formation assays (CFA, which determine long-term survival of drug-treated cells and their ability to spawn a colony of descendants). Several established cell lines derived from cancers of the breast were used as target cells (including MDA-MB-231; MDA-MB-468; T47D; MCF7; MCF7/Dox; BTB12), brain (T98G; U251), ovary (A2780), and colon (HCT116). In all cases, cells in culture were exposed to increasing concentrations of agents for 24 or 48 hours.

MDA-MB-231 cells = experiment: MTT short-term toxicity assay in MDA-MB-231 cells; details: MDA-MB-231
Protocol: as §1, §2
Methylthiazoletetrazolium (MTT) assays were performed as described earlier.

[4] = test system: HCT116 colon cancer cells; experiment: Cellular ATP content assay; details: 100 nM rotenone in glucose-free medium
Protocol: HCT116 cells were treated with 40 μM 3-BP or NEO218. As a point of reference, cells were also exposed to 100 nM rotenone in glucose-free medium. ATP levels were determined after 3 and 6 hours. ATP levels in untreated cells were set at 100% (corresponding to 26.6 nmol per one million cells).
HCT116 colon cancer cells were treated cells with: NEO218, 3-BP; rotenone (a mitochondrial poison that blocks the respiratory chain); medium without glucose (“no gluc”; in order to shut down glycolysis); and, rotenone in combination with absent glucose (to cease all intracellular ATP production). After 3 hours of treatment, a commercially available ATP detection assay kit was employed to determine the relative levels of ATP present.
ATP content of cells was measured with the ATP Colorimetric/Fluorometric Assay kit (Biovision Inc., Milpitas, Calif.), which utilizes the phosphorylation of glycerol to generate a product that is quantified by colorimetry at 570 nm. Approximately 1×10^6 cells were cultured in 10-cm tissue culture plates, exposed to drug treatment for various time periods, and then processed as per manufacturer's instructions. All ATP levels were normalized to untreated controls and presented as percentage of controls.

[5] = test system: cleaved caspase 7, cleaved PARP, γ-H2AX in MCF7, MDA-MB-231 and HCT116 cells; experiment: Western blot for apoptosis markers; details: STS as positive control
Protocol: (§3) (A) FACS analysis of HCT116 cells after treatment for 2, 4, or 8 hours with vehicle, 30 μM 3-BP, 30 μM NEO218, or 1 μM staurosporine (STS). […] (B) Western blot analysis of apoptotic markers. In the top section, MDA-MB-231 cells were treated with 30 μM NEO218 or 1 μM STS for various time points. In the lower section, HCT116 cells were treated with the indicated concentrations of 3-BP, NEO218, or STS for 16 hours. In all cases cell lysates were prepared and analyzed for the well-established apoptotic markers cleaved PARP, cleaved (i.e., activated) caspase 7 (cl. C-7), and phosphorylated (i.e., active) H2AX. Actin was used as a loading control. (C) HCT116 cells were pretreated with 50 μM Z-VAD-FMK for one hour, followed by the addition of increasing concentrations of 3-BP or NEO218. Cell viability was determined by MTT assay 24 hours later. Data points are averages from n=3.
The capacity for NEO218 to induce apoptosis was evaluated in a series of experiments. Three different cell lines were treated 3-BP and NEO218. Drug-treated cells were harvested, and cellular lysates were analyzed by Western blot for the presence of the three well-established markers of apoptosis: • cleaved caspase 7 (cl. C7); • cleaved (cl.) vs. full-length (f.l.) PARP; and, • induction of γ-H2AX (which indicates DNA cleavage).
The appearance of cl. C7 and cl. PARP is indicative of ongoing apoptotic processes. In all cases, lysates were also probed for the presence of actin as a control.
Two breast cancer cell lines (MCF7 and MDA-MB-231) and one colon cancer cell line (HCT116) were treated with increasing concentrations of NEO218 or 3-BP. As a control, they were also treated with staurosporine (STS), a known potent inducer of apoptosis. Western blot analyses for the presence of apoptosis markers are shown in the left panels of FIG. 6.
Total cell lysates were analyzed by Western blot analysis as described earlier. Primary antibodies against cleaved caspase 7 and PARP were obtained from Cell Signaling Technology (Danvers, Mass.), and antibodies against actin (C-11) and MCT1 (H-1) were obtained from Santa Cruz Biotechnology (Santa Cruz, Calif.). All antibodies were used according to the manufacturers' recommendations, except that in the case of MCT1 detection, the boiling step was omitted before loading the samples onto the polyacrylamide gel. All immunoblots were repeated at least once to confirm the results.

HCT116 cells = experiment: FACS analysis for annexin V and propidium iodide; details: 2, 4 or 8 hours of treatment
Protocol: as §3
In the absence of indications that apoptotic mechanisms played a significant role in cell death induced by NEO218, necrosis was investigated as a potential key mechanism. The distinction between apoptotic and necrotic cell death was made by measuring annexin V staining (a marker of apoptosis) and PI (propidium iodide) staining (a marker of necrosis) of drug-treated cells, in comparison to non-drug-treated cells (as a control). Measurements of annexin V and PI were done by FACS analysis after 2, 4, or 8 hours of treatment. Cells were treated with NEO218, 3-BP, and staurosporine (individually), and incorporation of propidium iodide (PI, a marker of necrotic cell death) or annexin V (a marker for apoptosis) was determined by fluorescence-activated cell sorting.
The results are organized in FIG. 8 as follows: no treatment (top row), 3-BP (second row), NEO218 (third row), and staurosporine (bottom row).
Characterization of cell death was performed by flow cytometry using the Alexa Fluor® 488 Annexin V/Dead Cell Apoptosis kit (Thermo Fisher Scientific). This kit contains recombinant, green fluorophore-conjugated annexin V, which reacts with apoptotic cells, and DNA-binding, red-fluorescent propidium iodide (PI), which is impermeant to live and apoptotic cells, but stains dead cells. The different cell populations can be distinguished by green fluorescence (apoptotic cells), red fluorescence (necrotic/dead cells), and no fluorescence (live cells) during flow cytometry with 488 nm laser excitation. Control or drug-treated cells were processed as per manufacturer's instructions, followed by flow cytometry of 10,000 cells per point with an LSR II (BD Biosciences, San Jose, Calif.) at the USC Flow Cytometry Core Facility.

In the case of `C=C(C)[C@@H]1CC=C(CO)CC1` [POH, perillyl alcohol], the IC50 (tumor cell lines) is reported as at least 500 µM, the “toxic potency by LDH release” value [1] is reported as “requires fairly high concentrations to achieve cell killing” and the IC50 [2] is reported as over 1000 µM. The “IC50 of POH alone” value [3] was “several hundred” and the “IC50 of POH alone” value (MDA-MB-231 cells) was “approaching the millimolar range”.

In the case of `C=C(C)[C@H]1Cc2c(ccc3c2O[C@@H]2COc4cc(OC)c(OC)cc4[C@@H]2C3=O)O1` [rotenone], the ATP level ([4]; after six hours) is reported as “about 10 % of normal” and the ATP level ([4]; within the first 3 hours, untreated = 100%) is reported as under 25%.

In the case of `CN[C@@H]1C[C@H]2O[C@@](C)([C@@H]1OC)n1c3ccccc3c3c4c(c5c6ccccc6n2c5c31)C(=O)NC4` [staurosporine], the “induction of apoptosis markers (cleaved PARP, cleaved caspase 7, γ-H2AX)” value [5] is reported as “striking induction of all 3 markers of apoptosis”, the “induction of apoptosis markers (cleaved PARP, cleaved caspase 7, γ-H2AX)” value ([5]; listed as STS) is reported as “triggered pronounced cleavage of PARP, activation of C-7; also recorded: prominent appearance of apoptotic markers” and the “incorporation of PI (necrosis) versus annexin V (apoptosis)” value (HCT116 cells) is reported as “incorporation of annexin V, but very little PI”. The “incorporation of PI (necrosis) versus annexin V (apoptosis)” value (HCT116 cells; listed as STS) was “moved from the lower left quadrant (=fully viable cells) to the lower right quadrant (=annexin V-positive cells)”.
